pIC50: −log10 of the molar value. Values after ≈ are worked out from the molar mass of the structure shown.
Legend:
[1] = tested on: Plasmodium falciparum; experiment: Antiplasmodial activity against Plasmodium falciparum NF54 by SYBR Green-based method; assay type: functional, organism-based
[2] = tested on: Plasmodium falciparum; experiment: Antiplasmodial activity against multidrug-resistant Plasmodium falciparum K1 by SYBR Green-based method; assay type: functional, organism-based
[3] = Protein binding in human plasma; assay type: ADME, cell-free
[4] = Solubility of the compound […]; assay type: physicochemical
[5] = Octanol-water partition coefficient, log D by shake-flask method; assay type: physicochemical
[6] = molecular target: hERG (KCNH2) (Homo sapiens, UniProt Q12809); experiment: Inhibition of human ERG at 11.1 uM
[7] = Clearance in rat hepatocytes assessed per million cells at 1 uM after 5 to 120 mins by LC-MS/MS analysis; assay type: ADME, cell-based, Hepatocyte; conditions: read-out: CLH
[8] = tested on: Liver microsome; experiment: Clearance in human liver microsomes at 1 uM after 2 to 30 mins by LC-MS/MS analysis; assay type: ADME
[9] = tested on: THP-1; experiment: Cytotoxicity against human THP1 cells; assay type: cell-based
[10] = Selectivity index, ratio of IC50 for human A549 cells to IC50 for Plasmodium falciparum; assay type: toxicity, cell-based; conditions: read-out: Ratio IC50

Chain of hERG (KCNH2) (Q12809 whole entry): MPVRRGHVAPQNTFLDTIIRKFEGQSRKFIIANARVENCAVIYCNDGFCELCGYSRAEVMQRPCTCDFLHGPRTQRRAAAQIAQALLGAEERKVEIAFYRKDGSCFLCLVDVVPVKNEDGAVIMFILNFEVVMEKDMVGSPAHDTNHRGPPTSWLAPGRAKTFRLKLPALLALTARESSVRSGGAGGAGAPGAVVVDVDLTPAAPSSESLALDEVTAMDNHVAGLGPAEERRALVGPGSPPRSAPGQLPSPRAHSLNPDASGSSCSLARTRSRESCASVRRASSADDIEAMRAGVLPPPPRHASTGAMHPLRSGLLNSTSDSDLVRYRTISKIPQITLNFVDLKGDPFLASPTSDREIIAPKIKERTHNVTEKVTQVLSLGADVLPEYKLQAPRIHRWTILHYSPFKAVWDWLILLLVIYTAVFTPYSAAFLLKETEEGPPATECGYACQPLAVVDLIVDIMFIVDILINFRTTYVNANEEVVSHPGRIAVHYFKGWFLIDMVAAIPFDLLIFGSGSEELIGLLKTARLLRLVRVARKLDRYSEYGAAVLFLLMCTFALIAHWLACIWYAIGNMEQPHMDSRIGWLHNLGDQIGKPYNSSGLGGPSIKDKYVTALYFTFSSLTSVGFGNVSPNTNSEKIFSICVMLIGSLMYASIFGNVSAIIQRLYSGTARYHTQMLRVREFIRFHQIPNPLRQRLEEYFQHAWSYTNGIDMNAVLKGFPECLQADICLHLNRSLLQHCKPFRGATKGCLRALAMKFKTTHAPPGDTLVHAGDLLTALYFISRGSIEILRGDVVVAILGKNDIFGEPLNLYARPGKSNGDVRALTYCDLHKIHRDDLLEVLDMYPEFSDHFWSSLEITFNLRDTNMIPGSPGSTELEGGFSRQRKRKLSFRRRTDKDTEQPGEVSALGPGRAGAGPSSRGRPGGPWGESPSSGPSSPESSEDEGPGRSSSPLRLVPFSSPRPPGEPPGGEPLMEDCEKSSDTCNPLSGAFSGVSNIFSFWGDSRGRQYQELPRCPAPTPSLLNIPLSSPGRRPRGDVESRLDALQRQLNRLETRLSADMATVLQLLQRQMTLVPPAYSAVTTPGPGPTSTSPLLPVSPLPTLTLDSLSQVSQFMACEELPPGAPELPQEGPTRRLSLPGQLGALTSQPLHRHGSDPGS

Cc1ccc(CNCC2CC2)c(O)c1
pIC50 [1]: 5.85 | pIC50 [2]: 6.28

CCNCc1ccc(C)cc1O
pIC50 [1]: < 5.70 | pIC50 [2]: < 5.70

Cc1ccc(CNC2CCCCC2)c(O)c1
pIC50 [1]: 6.14 | pIC50 [2]: 6.89

Cc1ccc(CNC2C3CC4CC(C3)CC2C4)c(O)c1 (stereo not drawn)
pIC50 [1]: 7.37 | pIC50 [2]: 7.82

Cc1ccc(CNCC23CC4CC(CC(C4)C2)C3)c(O)c1
pIC50 [1]: 8.22 | pIC50 [2]: > 8.40

COc1ccc(CNCC23CC4CC(CC(C4)C2)C3)c(O)c1
fraction unbound [3]: 0.044 | solubility [4]: 446 µM (≈ 134 µg/mL) | pIC50 [1]: 7.66 | logD [5]: 2.7 | inhibition at 11.1 µM [6]: 46.2% | hepatocyte CLint at 1 µM [7]: 391 µL/min/1e6 cells | pIC50 [2]: 8.22 | CLH [8]: 59 µL/min

Oc1cccc(F)c1CNCC12CC3CC(CC(C3)C1)C2
pIC50 [1]: 7.55 | pIC50 [2]: 8.10

COc1cccc(F)c1CNCC12CC3CC(CC(C3)C1)C2
pIC50 [1]: < 5.70 | pIC50 [2]: 5.96

c1ccc(CNCC23CC4CC(CC(C4)C2)C3)cc1
pIC50 [1]: < 5.70 | pIC50 [2]: < 5.70

CN(Cc1ccccc1O)CC12CC3CC(CC(C3)C1)C2
pIC50 [1]: < 6.30 | pIC50 [2]: 6.57

O=C(NCC12CC3CC(CC(C3)C1)C2)c1ccccc1O
pIC50 [1]: < 6.30 | pIC50 [2]: 6.39

Oc1ccc(Cl)cc1CNCC12CC3CC(CC(C3)C1)C2
fraction unbound [3]: 0.004 | solubility [4]: 43 µM (≈ 13.2 µg/mL) | pIC50 [1]: 8.30 | logD [5]: 4 | Activity [9]: Non-toxic | inhibition at 11.1 µM [6]: 26.8% | selectivity ratio [10]: 5290 | hepatocyte CLint at 1 µM [7]: 208 µL/min/1e6 cells | pIC50 [2]: > 8.40 | CLH [8]: 80 µL/min

Oc1ccc(Br)cc1CNCC12CC3CC(CC(C3)C1)C2
pIC50 [1]: 8.15 | Activity [9]: Non-toxic | selectivity ratio [10]: 4780 | pIC50 [2]: > 8.40

Cc1ccc(O)c(CNCC23CC4CC(CC(C4)C2)C3)c1
fraction unbound [3]: 0.031 | solubility [4]: 97 µM (≈ 27.7 µg/mL) | pIC50 [1]: 7.37 | logD [5]: 3.3 | Activity [9]: Non-toxic | inhibition at 11.1 µM [6]: 28.3% | selectivity ratio [10]: > 1160 | hepatocyte CLint at 1 µM [7]: 134 µL/min/1e6 cells | pIC50 [2]: 7.82 | CLH [8]: 93 µL/min

Oc1ccc(C(F)(F)F)cc1CNCC12CC3CC(CC(C3)C1)C2
pIC50 [1]: 7.00 | Activity [9]: Non-toxic | selectivity ratio [10]: > 500 | pIC50 [2]: 7.92

CC(NCC12CC3CC(CC(C3)C1)C2)c1cc(Br)ccc1O (stereo not drawn)
pIC50 [1]: 7.39 | Activity [9]: Non-toxic | selectivity ratio [10]: > 1220 | pIC50 [2]: 7.92

Cc1ccc(O)c(CNCC23CC4CC(CC(C4)C2)C3)n1
fraction unbound [3]: 0.122 | solubility [4]: 237 µM (≈ 67.9 µg/mL) | pIC50 [1]: 7.49 | logD [5]: 3 | Activity [9]: Non-toxic | inhibition at 11.1 µM [6]: 7.9% | selectivity ratio [10]: > 1560 | hepatocyte CLint at 1 µM [7]: 49 µL/min/1e6 cells | pIC50 [2]: 8.11 | CLH [8]: 13 µL/min

Oc1cc(Cl)cc(Cl)c1CNCC12CC3CC(CC(C3)C1)C2
pIC50 [1]: 8.10 | Activity [9]: Non-toxic | selectivity ratio [10]: > 6250 | pIC50 [2]: > 8.40

Oc1c(F)cc(Br)cc1CNCC12CC3CC(CC(C3)C1)C2
fraction unbound [3]: 0.005 | solubility [4]: 4 µM (≈ 1.47 µg/mL) | pIC50 [1]: 7.85 | logD [5]: 3.7 | Activity [9]: Non-toxic | inhibition at 11.1 µM [6]: 9.2% | selectivity ratio [10]: > 3330 | hepatocyte CLint at 1 µM [7]: 162 µL/min/1e6 cells | pIC50 [2]: > 8.40 | CLH [8]: 92 µL/min

Oc1ccccc1CNCC12CC3CC(CC(C3)C1)C2
pIC50 [1]: 7.14 | pIC50 [2]: 8.00

C[C@@H]1CC[C@H]2[C@@H](C)C(=O)O[C@@H]3O[C@@]4(C)CC[C@@H]1[C@]32OO4 [ARTEMISININ]
pIC50 [1]: 8.15

O=C1C(O)=C([C@H]2CC[C@H](c3ccc(Cl)cc3)CC2)C(=O)c2ccccc21 [ATOVAQUONE]
pIC50 [2]: 8.64

— ChEMBL document CHEMBL3392977, “Synthesis and biological evaluation of adamantane-based aminophenols as a novel class of antiplasmodial agents” (Bioorg Med Chem Lett, 2015)
